How the values were obtained:
[1] = (§1) Potency for the inhibition of estrone sulfatase relative to coumate
Steryl-sulfatase = molecular target: T1, Steryl-sulfatase (Homo sapiens, UniProt P08842); assay: Inhibitory concentration against estrone sulfatase
T1 sequence (P08842 whole entry): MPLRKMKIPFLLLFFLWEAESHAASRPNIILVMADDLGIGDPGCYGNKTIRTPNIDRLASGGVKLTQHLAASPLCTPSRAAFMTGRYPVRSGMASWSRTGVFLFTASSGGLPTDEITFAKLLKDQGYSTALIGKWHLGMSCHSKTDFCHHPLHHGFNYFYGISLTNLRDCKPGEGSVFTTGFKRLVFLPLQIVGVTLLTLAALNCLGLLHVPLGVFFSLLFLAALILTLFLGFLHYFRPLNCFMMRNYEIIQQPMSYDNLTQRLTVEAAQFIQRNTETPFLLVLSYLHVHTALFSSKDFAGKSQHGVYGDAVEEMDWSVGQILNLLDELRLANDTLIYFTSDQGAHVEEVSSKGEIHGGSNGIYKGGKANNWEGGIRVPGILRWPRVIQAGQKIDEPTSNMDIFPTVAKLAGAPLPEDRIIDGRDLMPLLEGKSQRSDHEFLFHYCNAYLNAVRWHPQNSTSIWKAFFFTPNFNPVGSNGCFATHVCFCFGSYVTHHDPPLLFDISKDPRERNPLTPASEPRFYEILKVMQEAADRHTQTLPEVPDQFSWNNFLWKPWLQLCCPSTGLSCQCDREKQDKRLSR

[2] = Dissociation constant was determined; type: physicochemical
[3] = molecular target: T2, Steryl-sulfatase (Homo sapiens) (UniProt P08842); assay: as §1
T2 sequence (whole entry): T1 sequence (P08842 whole entry)

Compound | IC50 (Steryl-sulfatase) | pKa [2] | Relative potency [3] | Relative potency [1]
NS(=O)(=O)Oc1ccc(Cl)cc1 | 1580 µM | 9.5 | 132 | 
Cc1ccc(OS(N)(=O)=O)cc1 | > 10000 µM | 10.2 |  | 
NS(=O)(=O)Oc1cccc(F)c1 | 2090 µM | 9.16 | 174 | 
C[C@]12CC[C@@H]3c4ccc(OS(N)(=O)=O)cc4CC[C@H]3[C@@H]1CCC2=O [EMATE] | 0.1 µM |  |  | 0.008
NS(=O)(=O)Oc1ccccc1 [PHENYLSULFAMATE] | > 10000 µM | 9.98 |  | 
NS(=O)(=O)Oc1ccc(Br)cc1 | 912 µM | 9.29 | 76 | 
NS(=O)(=O)Oc1ccc(F)cc1 | > 10000 µM | 9.8 |  | 
Cc1cccc(OS(N)(=O)=O)c1 | > 10000 µM | 10 |  | 

Second part, led by results:

IC50 (Steryl-sulfatase) | pKa [2] | Relative potency [3] | Compound | Relative potency [1]
12 µM |  |  | NS(=O)(=O)Oc1ccc2ccc(=O)oc2c1 | 1
300 µM | 8.02 | 25 | N#Cc1ccc(OS(N)(=O)=O)cc1 | 
537 µM | 9 | 45 | NS(=O)(=O)Oc1cccc(Cl)c1 | 
330 µM | 7.15 | 27.5 | NS(=O)(=O)Oc1ccc([N+](=O)[O-])cc1 | 
257 µM | 8.95 | 21 | NS(=O)(=O)Oc1cccc(Br)c1 | 
120 µM | 8.28 | 10 | NS(=O)(=O)Oc1cccc([N+](=O)[O-])c1 | 
190 µM | 8.54 | 16 | N#Cc1cccc(OS(N)(=O)=O)c1 | 
